# Measurements from patent publication US7674823B2, “DNA-PK inhibitors” (Cancer Research Technology Limited, priority 2001, dated 2010).
# Where two headings read alike, the source gives them in different places.
# How the values were obtained:
# ATM protein [1] = assay: ATM inhibition assay (immunoprecipitated ATM, GSTp53N66 substrate); assay type: biochemical, human; details: selectivity ratio from the IC50s for ATM and DNA-PK
# Protocol: (§1) In order to assess the inhibitory action of the compounds against ATM in vitro, the following assay was used to determine IC50 values.
# (§2) ATM protein was immunoprecipitated from HeLa cell nuclear extract using rabbit polyclonal antisera raised to the C-terminal ˜500 amino-acid residues of the human ATM protein. The immunoprecipitation was performed according to the methodology described by Banin, S. et al. (1998) Enhanced phosphorylation of p53 by ATM in response to DNA damage. Science 281:1674-1677. 10 μl of immunoprecipitated ATM in Buffer C (50 mM Hepes, pH 7.4, 6 mM MgCl2, 150 mM NaCl, 0.1 mM sodium orthovanadate, 4 mM MnCl2, 0.1 mM dithiothreitol, 10% glycerol) was added to 32.5 μl of buffer C containing 1 μg of the ATM substrate GSTp53N66 in a V-bottomed 96 well polypropylene plate. The GSTp53N66 substrate is the amino terminal 66 amino acid residues of human wild type p53 fused to glutathione S-transferase. ATM phosphorylates p53 on the residue serine 15 (Banin, S. et al. (1998) Enhanced phosphorylation of p53 by ATM in response to DNA damage. Science 281:1674-1677). Varying concentrations of inhibitor were then added. […] After 10 minutes of incubation at 37° C., the reactions were initiated by the addition of 5 μl of 50 μM Na-ATP. After 1 h with shaking at 37° C., 150 μl of phosphate buffered saline (PBS) was added to the reaction and the plate centrifuged at 1500 rpm for 10 minutes. 5 μl of the reaction was then transferred to a 96 well opaque white plate containing 45 μl of PBS to allow the GSTp53N66 substrate to bind to the plate wells. The plate was covered and incubated at room temperature for 1 h with shaking before discarding the contents. The plate wells were washed twice by the addition of PBS prior to the addition of 3% (w/v) bovine serum albumin (BSA) in PBS. The plate was incubated at room temperature for 1 h with shaking before discarding the contents and washing twice with PBS. To the wells, 50 μl of a 1:10,000 dilution of primary phosphoserine-15 antibody (Cell Signaling Technology, #9284L) in 3% BSA/PBS was added to detect the phosphorylation event on the serine 15 residue of p53 elicited by the ATM kinase. After 1 h of incubation at room temperature with shaking, the wells were washed four times with PBS prior to the addition of an anti-rabbit HRP conjugated secondary antibody (Pierce, 31462) with shaking for 1 h at room temperature. The wells were then washed four times with PBS before the addition of chemiluminescence reagent (NEN Renaissance, NEL105). The plate was then shaken briefly, covered with a transparent plate seal and transferred to a TopCount NXT for chemiluminescent counting. Counts per second, following a one second counting time, were recorded for each reaction. The inhibition of ATM activity by compounds was calculated as described above for the DNA-PK assay.
# (§3) The selectivity was determined by the following equation: […]
# ATM protein [2] = target: T1, ATM protein (Homo sapiens, UniProt Q13315); assay: as above; assay type: biochemical
# T1 construct: ATM protein was immunoprecipitated from HeLa cell nuclear extract; endogenous in cells; host or cells: HeLa cell nuclear extract (immunoprecipitate)
# Protocol: as §1, §2, §3
# [3] = target: T2, Mammalian DNA-PK, isolated from Hela cell nuclear extract (Homo sapiens, UniProt P78527); assay: DNA-PK inhibition assay (33P-ATP, filter binding); assay type: biochemical
# T2 construct: Mammalian DNA-PK, isolated from Hela cell nuclear extract; endogenous in cells; host or cells: HeLa cell nuclear extract (purified per Gell and Jackson 1999)
# Protocol: In order to assess the inhibitory action of the compounds against DNA-PK in vitro, the following assay was used to determine IC50 values.
# The total assay volume per well was 40 μl.
# After 10 minutes of incubation at 30° C. the reactions were initiated by the addition of Na-ATP (50 μM final), ^33p-γATP and a 30mer double stranded DNA oligonucleotide (10 ng/μl) in a volume of 10 μl. Designated positive and negative reaction wells were done in combination with compound wells (unknowns) in order to calculate % enzyme activities. The plates were then shaken for 2 minutes and incubated at 30° C. for 45 minutes.
# Following the incubation, the reactions were quenched by the addition of 50 μl 30% acetic acid to each well. The plates were then shaken for 5 minutes and the contents of each plate (80 μl from each well) transferred over to a 96 well Polyfiltronics filtration plate, containing P81-phosphocellulose membrane (TRADE MARK)(Whatman, UK). The solutions were vacuum pumped through the membrane and each well membrane washed four times using 300 μl of 15% acetic acid. The well membranes were then air dried and 20 μl of scintillant was added to each well.
# The plates were transferred to a TopCount NXT (TRADE MARK) (Packard, UK) for scintillation counting. Values recorded are counts per minute (cpm) following a 1 minute counting time for each well.
# The enzyme activity for each compound is then calculated using the following equation: […]
# These are determined over a range of different concentrations, normally from 10 μM down to 0.01 μM. Such IC50 values are used as comparative values to identify increased compound potencies.
# PI 3-kinase (p110α/p85α) = assay: PI 3-kinase inhibition assay; assay type: biochemical; details: selectivity ratio from the IC50s for PI 3-kinase and DNA-PK
# Source text: In order to assess the inhibitory action of the compounds against PI 3-kinase in vitro, the following assay was used to determine IC50 values.
# Baculoviral recombinant GST-fused PI 3-kinase (p110α/p85α) was purified from Sf9 insect cells using GSH-sepharose affinity chromatography as described (Wymann, M. T et al., (1996) Wortmannin inactivates phosphoinositide 3-kinase by covalent modification of Lys-802, a residue involved in the phosphate transfer reaction. Mol. Cell Biol. 16:1722-1733). PI 3-kinase (1 μl) was diluted in reaction buffer (89 μl of 50 mM Hepes pH 7.5, 150 mM NaCl, 0.1 mM Sodium Orthovanadate, containing 20 μg of phosphatidylinositol) and varying concentrations of inhibitor compound added. […] Reactions were incubated for a further 20 minutes at 37° C., before quenching with the addition of 400 μl of chloroform/methanol (1:1). Reactions were acidified by the addition of 200 μl of 1M HCl, before separation of the organic and aqueous phases by centrifugation at 10,000 g for 30 seconds. The organic phase was transferred to a fresh tube and washed twice with 150 μl of 1M hydrochloric acid/methanol (1:1), discarding the aqueous phase. The washed reaction product was then placed in a white 96-well plate with 100 μl of scintillation fluid and transferred to a TopCount NXT for scintillation counting. Counts per minute, following a one minute counting time, were recorded for each reaction. The inhibition of PI 3-kinase activity by compounds was calculated as described above for the DNA-PK assay.
# as §3
# [4] = IC50 of less than about 1 μM and/or % inhibition of more than about 50 at 1 μM, read-out: DNA-PK inhibition IC50 (particular efficacy)
# [5] = concentration at which 50% of the enzyme activity is inhibited, read-out: DNA-PK Inhibition IC50
# T1 sequence (Q13315 whole entry): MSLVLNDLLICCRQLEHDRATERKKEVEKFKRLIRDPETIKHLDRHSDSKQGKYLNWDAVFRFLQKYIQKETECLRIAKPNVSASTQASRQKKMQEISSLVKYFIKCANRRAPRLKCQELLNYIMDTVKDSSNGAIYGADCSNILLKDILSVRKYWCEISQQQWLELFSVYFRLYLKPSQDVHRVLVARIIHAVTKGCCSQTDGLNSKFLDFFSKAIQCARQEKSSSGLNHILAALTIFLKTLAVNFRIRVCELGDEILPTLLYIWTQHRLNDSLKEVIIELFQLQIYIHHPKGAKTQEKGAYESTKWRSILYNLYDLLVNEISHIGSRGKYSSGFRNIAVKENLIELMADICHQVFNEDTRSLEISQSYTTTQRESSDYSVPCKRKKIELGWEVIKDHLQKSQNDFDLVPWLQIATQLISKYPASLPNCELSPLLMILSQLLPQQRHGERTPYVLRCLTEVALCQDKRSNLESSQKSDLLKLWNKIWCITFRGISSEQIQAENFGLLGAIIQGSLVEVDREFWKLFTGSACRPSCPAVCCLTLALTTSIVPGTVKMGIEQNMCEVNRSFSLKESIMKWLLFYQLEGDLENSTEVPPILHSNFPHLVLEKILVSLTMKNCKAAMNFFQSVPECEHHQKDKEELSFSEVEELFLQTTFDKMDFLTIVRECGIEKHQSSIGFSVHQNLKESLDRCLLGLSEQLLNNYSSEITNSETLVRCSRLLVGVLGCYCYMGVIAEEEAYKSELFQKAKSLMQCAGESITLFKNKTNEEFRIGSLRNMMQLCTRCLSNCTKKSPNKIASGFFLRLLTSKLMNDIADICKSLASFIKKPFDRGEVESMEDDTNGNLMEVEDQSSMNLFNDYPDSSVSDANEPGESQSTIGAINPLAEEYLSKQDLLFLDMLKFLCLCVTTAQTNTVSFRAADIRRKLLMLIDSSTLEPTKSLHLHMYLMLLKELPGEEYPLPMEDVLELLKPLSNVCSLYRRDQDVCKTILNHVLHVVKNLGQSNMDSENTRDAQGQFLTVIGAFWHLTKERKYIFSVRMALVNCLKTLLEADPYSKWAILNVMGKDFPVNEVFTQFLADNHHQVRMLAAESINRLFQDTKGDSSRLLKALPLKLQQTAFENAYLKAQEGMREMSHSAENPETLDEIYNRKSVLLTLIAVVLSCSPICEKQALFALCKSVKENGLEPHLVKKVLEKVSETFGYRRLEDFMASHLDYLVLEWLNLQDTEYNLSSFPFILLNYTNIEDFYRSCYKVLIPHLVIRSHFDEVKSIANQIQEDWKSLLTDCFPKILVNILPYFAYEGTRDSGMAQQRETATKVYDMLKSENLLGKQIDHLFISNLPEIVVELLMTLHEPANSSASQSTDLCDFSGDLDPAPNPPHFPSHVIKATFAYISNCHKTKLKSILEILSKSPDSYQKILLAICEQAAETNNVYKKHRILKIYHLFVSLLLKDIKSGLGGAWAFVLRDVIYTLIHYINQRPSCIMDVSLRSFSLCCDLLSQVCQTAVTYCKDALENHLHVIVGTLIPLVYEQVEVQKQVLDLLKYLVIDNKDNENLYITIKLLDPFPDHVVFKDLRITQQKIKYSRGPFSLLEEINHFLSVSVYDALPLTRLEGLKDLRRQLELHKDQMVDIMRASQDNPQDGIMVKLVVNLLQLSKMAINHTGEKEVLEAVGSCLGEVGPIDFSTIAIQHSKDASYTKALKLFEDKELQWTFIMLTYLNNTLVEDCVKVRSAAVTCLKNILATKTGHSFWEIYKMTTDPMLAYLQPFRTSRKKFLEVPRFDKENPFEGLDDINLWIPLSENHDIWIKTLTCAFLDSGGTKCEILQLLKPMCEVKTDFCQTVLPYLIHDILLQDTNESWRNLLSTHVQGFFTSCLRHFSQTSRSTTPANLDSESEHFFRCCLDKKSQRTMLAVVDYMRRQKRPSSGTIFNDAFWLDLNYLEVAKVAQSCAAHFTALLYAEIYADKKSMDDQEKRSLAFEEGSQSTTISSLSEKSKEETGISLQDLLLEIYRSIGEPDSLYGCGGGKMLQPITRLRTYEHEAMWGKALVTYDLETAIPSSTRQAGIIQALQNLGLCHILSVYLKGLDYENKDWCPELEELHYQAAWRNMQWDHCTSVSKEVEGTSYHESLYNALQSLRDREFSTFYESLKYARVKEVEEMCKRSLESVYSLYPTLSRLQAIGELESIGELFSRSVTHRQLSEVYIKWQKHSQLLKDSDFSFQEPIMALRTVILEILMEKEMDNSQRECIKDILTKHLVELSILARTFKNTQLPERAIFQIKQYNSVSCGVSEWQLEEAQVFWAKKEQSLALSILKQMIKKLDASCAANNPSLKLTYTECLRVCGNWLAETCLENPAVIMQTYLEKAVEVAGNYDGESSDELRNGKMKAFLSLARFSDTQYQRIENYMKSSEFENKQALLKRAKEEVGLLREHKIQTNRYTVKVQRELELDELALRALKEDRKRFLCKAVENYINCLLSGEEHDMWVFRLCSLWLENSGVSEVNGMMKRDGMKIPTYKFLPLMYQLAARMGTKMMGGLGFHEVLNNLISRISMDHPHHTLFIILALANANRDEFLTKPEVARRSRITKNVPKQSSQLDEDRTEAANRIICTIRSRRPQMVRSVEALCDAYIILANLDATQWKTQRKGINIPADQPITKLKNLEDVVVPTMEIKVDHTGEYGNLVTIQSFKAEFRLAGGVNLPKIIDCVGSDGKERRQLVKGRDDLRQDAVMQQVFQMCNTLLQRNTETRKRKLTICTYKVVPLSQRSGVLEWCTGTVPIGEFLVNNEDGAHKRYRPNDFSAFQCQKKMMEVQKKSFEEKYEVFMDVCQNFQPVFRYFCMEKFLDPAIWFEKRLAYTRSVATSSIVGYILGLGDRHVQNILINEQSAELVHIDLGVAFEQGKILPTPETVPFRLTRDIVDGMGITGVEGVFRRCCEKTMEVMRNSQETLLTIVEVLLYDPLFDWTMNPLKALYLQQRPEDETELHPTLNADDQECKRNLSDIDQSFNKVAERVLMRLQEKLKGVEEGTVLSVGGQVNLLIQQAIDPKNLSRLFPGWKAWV
IC50 (ATM protein [2]),melting point,Structure (SMILES),Δ(DNA-PK/ATM) (ATM protein [1]),other results
> 50 µM,115 to 117 °C,"COc1cccc(-c2cc(=O)cc(N3CCOCC3)o2)c1 [Compound 287, 2-(3-methoxyphenyl)-6-(morpholin-4-yl)-pyran-4-one]",>125,
> 50 µM,169 to 170 °C,"O=c1cc(-c2cccc(F)c2)oc(N2CCOCC2)c1 [Compound 291, 6-(3-fluorophenyl)-2-(morpholin-4-yl)pyran-4-one]",>167,
,240 to 242 °C,"O=c1cc(N2CCSCC2)nc2c3ccccc3ccn12 [Compound 6, 2-Thiomorpholin-4-yl-pyrimido[2,1-a]isoquinolin-4-one]",,"IC50 [3, 4]: < 1 µM; IC50 [3, 5]: 5 µM"
> 100 µM,204 to 206 °C,"O=C(Oc1ccc2c(=O)cc(N3CCOCC3)oc2c1)c1ccccc1 [Compound 423, 7-Benzoyloxy-2-(morpholin-4-yl)-chromen-4-one]",>33,"IC50 [3, 5]: 3 µM"
24 µM,125 to 127 °C,"COc1ccccc1-c1cc(=O)cc(N2CCOCC2)o1 [Compound 286, 2-(2-methoxyphenyl)-6-(morpholin-4-yl)-pyran-4-one]",80,
> 100 µM,,"O=c1cc(N2CCOCC2)oc2cc(O)ccc12 [Compound 307, 7-hydroxy-2-(morpholin-4-yl)-chromen-4-one]",>111,"IC50 [3, 5]: 0.9 µM"
,208 to 209 °C,"C[C@@H]1CN(c2cc(=O)n3ccc4ccccc4c3n2)C[C@H](C)O1 [Compound 13, 2-((2S,6R)-2,6-Dimethyl-morpholin-4-yl)-pyrimido[2,1-a]isoquinolin-4-one]",,"IC50 [3, 5]: 8 µM"
> 100 µM,263 to 264 °C,"O=c1cc(N2CCOCC2)oc2cc(OCc3ccc4ccccc4c3)ccc12 [Compound 418, 7-(Naphthalen-2-ylmethoxy)-2-morpholin-4-yl-chromen-4-one]",>222,"IC50 [3, 4]: < 1 µM; IC50 [3, 5]: 0.45 µM"
,209 to 210 °C,"O=c1cc(N2CCCC(CO)C2)oc2c1ccc1ccccc12 (centres unmarked) [Compound 313, 2-(3-Hydroxymethyl-piperidin-1-yl)-benzo[h]chromen-4-one]",,
,214 to 216 °C,"CC1CCC(C)N(c2cc(=O)n3ccc4ccccc4c3n2)C1 (centres unmarked) [Compound 7, 2-(2,5-Dimethyl-piperidin-1-yl)pyrimido[2,1-a]isoquinolin-4-one]",,
,167 to 168 °C,"O=c1cc(N2CCOCC2)oc2cc(OCc3ccccc3Cl)ccc12 [Compound 417, 7-(2-Chlorobenzyloxy)-2-morpholin-4-yl-chromen-4-one]",,
> 100 µM,,"O=c1cc(-c2ccc(Cl)cc2)oc(N2CCOCC2)c1 [Compound 284, 2-(4-chlorophenyl)-6-(morpholin-4-yl)-pyran-4-one]",>286,
,187 to 188 °C,"O=c1cc(N2CCOCC2)oc2cc(OCC3CCCCC3)ccc12 [Compound 419, 7-Cyclohexylmethoxy-2-(morpholin-4-yl)-chromen-4-one]",,"IC50 [3, 5]: 1 µM"
,161 to 162 °C,"O=c1cc(N2CCOCC2)cc(-c2ccccc2)o1 [Compound 1, 4-morpholin-4-yl-6-(phenyl)-pyran-2-one]",,
,147 to 149 °C,"O=c1cc(N2CCOCC2)oc2ccc(Br)cc12 [Compound 308, 6-Bromo-2-morpholin-4-yl-chromen-4-one]",,
,139 to 140 °C,"O=c1cc(NCC2CCCO2)oc2c1ccc1ccccc12 (centres unmarked) [Compound 316, 2-[(Tetrahydrofuran-2-ylmethyl)-amino]-benzo[h]chromen-4-one]",,
,212 to 213 °C,"COc1ccc(-c2cc(N3CCOCC3)cc(=O)o2)cc1 [Compound 3, 6-(4-methoxyphenyl)-4-morpholin-4-yl-pyran-2-one]",,
,218 to 220 °C,"O=c1cc(N2CCOCC2)oc2ccc(-c3ccccc3)cc12 [Compound 298, 2-(Morpholin-4-yl)-6-phenylchromen-4-one]",,
,174 to 175 °C,"O=c1cc(NCC2CCCO2)nc2c3ccccc3ccn12 (centres unmarked) [Compound 10, 2-[(Tetrahydro-furan-2-ylmethyl)-amino]pyrimido[2,1-a]isoquinolin-4-one]",,
> 100 µM,,"O=c1cc(N2CCOCC2)oc2c(-c3ccccc3)cccc12 [Compound 294, 8-Phenyl-2-(morpholin-4-yl)-chromen-4-one]",> 67,Δ(DNA-PK/PI 3-K) (PI 3-kinase (p110α/p85α)): 1
,218 to 221 °C,"O=c1cc(NCCO)nc2c3ccccc3ccn12 [Compound 22, 2-(2-Hydroxy-ethylamino)-pyrimido[2,1-a]isoquinolin-4-one]",,
,165 °C,"COc1cccc2c(=O)cc(N3CCOCC3)oc12 [Compound 303, 8-Methoxy-2-morpholin-4-yl-chromen-4-one]",,
,195 to 196 °C,"CN(CC(O)c1ccccc1)c1cc(=O)n2ccc3ccccc3c2n1 (centres unmarked) [Compound 16, 2-[(2-Hydroxy-2-phenyl-ethyl)-methyl-amino]-pyrimido[2,1-a]isoquinolin-4-one]",,
,211 to 212 °C,"O=c1cc(N(CCO)CCO)nc2c3ccccc3ccn12 [Compound 11, 2-[Bis-(2-hydroxy-ethyl)-amino]pyrimido[2,1-a]isoquinolin-4-one]",,
,208 to 209 °C,"O=c1cc(N2CCNCC2)oc2c1ccc1ccccc12 [Compound 311, 2-piperazin-1-yl-benzo[h]chromen-4-one]",,
